Where two headings read alike, the source gives them in different places.
What was measured:
[1] = target: lysosomal α-mannosidase II (LManII) (Drosophila melanogaster, UniProt Q9VKV1); assay: Inhibition of lysosomal α-mannosidase II (LManII), pNP-Man substrate; format: biochemical; conditions: n.i. = no inhibition, 2 mM pNP-Man, pH 5.2
Protocol: (§1) The purification and characterization of recombinant Drosophila melanogaster Golgi α-mannosidase II [9] (GMIIb) and lysosomal α-mannosidase II (LManII) was carried out as already described. Activity of prepared mannosidases was measured using p-nitrophenyl-α-D-mannopyranoside (pNP-Man; Sigma-Aldrich) as a substrate at 2 mM concentration prepared from a 100 mM stock in dimethyl sulfoxide by dilution in 50 mM acetate buffer at optimal pH for the enzymes (Jack bean α-mannosidase (JBMan) at pH 5.0, Golgi α-mannosidase (GMIIb) at pH 6.0 and lysosomal α-mannosidase (LManII) at pH 5.2) and 0.5 μL of the enzyme (0.05 µg of protein for Jack bean α-mannosidase), in a total volume of 50 μL for 1–2 h at 37 °C. GMIIb was assayed in the presence of 0.5 mM CoCl2. Pyrrolidines 2–5 used in biochemical evaluation were lyophilized before use. The inhibitors 2–5 were pre-incubated with the enzyme in the buffer for 5 min at rt and the reaction was started by addition of the substrate. The reactions were terminated with two volumes (0.1 mL) of 0.5 M sodium carbonate and the production of p-nitrophenol was measured at 405 nm using a multimode reader Mithras LB943 (Berthold Technologies). The IC50 value was determined with 2 mM pNP-Man. All biochemical assays were performed in 96 well microplates in triplicate.

[2] = target: T1, Jack bean α-mannosidase (JBMan) (Canavalia ensiformis, UniProt C0HJB3); assay: Inhibition of jack bean α-mannosidase (JBMan), pNP-Man substrate; format: biochemical; conditions: n.i. = no inhibition, 2 mM pNP-Man; for JBMan (%) inhibition in the presence of 2 mM inhibitor concentration: pH 5.0; for inhibition at 2000 µM: pH 5, 2 mM inhibitor, read-out: JBMan (%) inhibition in the presence of 2 mM inhibitor concentration
T1 construct: purchased
T1 sequence (C0HJB3 1-981): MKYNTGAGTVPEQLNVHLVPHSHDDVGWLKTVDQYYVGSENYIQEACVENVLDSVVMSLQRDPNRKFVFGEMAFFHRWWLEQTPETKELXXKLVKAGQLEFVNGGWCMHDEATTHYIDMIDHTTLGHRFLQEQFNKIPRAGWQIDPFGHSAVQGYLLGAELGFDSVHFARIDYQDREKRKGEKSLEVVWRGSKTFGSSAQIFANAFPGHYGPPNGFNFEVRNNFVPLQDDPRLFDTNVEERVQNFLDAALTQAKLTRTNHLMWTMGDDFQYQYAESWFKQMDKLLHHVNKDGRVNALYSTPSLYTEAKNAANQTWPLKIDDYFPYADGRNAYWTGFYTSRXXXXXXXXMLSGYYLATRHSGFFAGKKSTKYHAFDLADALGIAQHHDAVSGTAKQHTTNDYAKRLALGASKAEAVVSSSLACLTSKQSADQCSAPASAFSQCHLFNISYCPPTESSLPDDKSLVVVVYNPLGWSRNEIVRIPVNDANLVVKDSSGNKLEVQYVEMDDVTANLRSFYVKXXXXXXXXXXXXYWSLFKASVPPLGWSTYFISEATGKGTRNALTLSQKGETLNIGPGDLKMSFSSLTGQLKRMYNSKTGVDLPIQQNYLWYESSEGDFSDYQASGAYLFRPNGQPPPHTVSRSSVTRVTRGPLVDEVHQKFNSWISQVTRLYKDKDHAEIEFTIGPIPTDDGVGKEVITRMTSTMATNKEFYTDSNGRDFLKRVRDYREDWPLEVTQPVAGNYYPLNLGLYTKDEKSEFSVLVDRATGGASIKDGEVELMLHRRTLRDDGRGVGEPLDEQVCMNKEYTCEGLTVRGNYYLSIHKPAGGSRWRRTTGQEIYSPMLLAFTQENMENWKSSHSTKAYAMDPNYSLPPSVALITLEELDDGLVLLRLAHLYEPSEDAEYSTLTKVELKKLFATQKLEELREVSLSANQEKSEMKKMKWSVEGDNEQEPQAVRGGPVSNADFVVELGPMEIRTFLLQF
Protocol: as §1

[3] = target: Drosophila melanogaster Golgi α-mannosidase II (GMIIb) (Drosophila melanogaster, UniProt Q9VF33); assay: Inhibition of Golgi α-mannosidase II (GMIIb), pNP-Man substrate; format: biochemical; conditions: for IC50: 2 mM pNP-Man; for fold decrease in inhibition activity against GMIIb in comparison with 1a: relative to 1a
Protocol: as §1

[4] = pH 6.0, 0.5 mM CoCl2, 37 °C, read-out: GMIIb [IC50 (M)]

Chain of lysosomal α-mannosidase II (LManII) (Q9VKV1 entry or part of it): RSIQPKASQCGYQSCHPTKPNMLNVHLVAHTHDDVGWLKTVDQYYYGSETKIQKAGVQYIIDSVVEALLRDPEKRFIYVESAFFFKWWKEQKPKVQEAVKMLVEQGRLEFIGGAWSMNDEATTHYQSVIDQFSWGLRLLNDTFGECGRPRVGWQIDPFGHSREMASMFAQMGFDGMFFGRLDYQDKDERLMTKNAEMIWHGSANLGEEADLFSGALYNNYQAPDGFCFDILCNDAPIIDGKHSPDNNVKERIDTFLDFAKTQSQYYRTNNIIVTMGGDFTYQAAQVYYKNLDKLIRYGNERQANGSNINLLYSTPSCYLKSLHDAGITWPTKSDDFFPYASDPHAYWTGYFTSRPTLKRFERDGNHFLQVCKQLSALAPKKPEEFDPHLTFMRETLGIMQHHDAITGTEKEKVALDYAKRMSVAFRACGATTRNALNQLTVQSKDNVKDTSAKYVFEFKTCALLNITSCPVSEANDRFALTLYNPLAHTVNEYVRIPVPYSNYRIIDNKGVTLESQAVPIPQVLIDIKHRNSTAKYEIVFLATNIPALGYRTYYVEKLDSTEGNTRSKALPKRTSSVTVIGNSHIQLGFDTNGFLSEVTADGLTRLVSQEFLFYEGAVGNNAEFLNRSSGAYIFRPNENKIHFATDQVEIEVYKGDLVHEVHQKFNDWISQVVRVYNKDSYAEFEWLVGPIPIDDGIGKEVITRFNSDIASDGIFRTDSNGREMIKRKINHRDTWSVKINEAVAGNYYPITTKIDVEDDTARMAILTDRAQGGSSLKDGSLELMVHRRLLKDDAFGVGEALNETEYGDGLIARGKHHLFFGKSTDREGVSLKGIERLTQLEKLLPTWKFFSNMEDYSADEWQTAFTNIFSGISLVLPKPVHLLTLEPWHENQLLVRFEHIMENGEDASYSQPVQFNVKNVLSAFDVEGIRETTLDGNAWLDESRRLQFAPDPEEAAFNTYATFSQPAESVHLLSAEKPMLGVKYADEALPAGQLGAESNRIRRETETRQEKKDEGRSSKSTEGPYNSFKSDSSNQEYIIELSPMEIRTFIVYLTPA
Chain of Drosophila melanogaster Golgi α-mannosidase II (GMIIb) (Q9VF33 entry or part of it): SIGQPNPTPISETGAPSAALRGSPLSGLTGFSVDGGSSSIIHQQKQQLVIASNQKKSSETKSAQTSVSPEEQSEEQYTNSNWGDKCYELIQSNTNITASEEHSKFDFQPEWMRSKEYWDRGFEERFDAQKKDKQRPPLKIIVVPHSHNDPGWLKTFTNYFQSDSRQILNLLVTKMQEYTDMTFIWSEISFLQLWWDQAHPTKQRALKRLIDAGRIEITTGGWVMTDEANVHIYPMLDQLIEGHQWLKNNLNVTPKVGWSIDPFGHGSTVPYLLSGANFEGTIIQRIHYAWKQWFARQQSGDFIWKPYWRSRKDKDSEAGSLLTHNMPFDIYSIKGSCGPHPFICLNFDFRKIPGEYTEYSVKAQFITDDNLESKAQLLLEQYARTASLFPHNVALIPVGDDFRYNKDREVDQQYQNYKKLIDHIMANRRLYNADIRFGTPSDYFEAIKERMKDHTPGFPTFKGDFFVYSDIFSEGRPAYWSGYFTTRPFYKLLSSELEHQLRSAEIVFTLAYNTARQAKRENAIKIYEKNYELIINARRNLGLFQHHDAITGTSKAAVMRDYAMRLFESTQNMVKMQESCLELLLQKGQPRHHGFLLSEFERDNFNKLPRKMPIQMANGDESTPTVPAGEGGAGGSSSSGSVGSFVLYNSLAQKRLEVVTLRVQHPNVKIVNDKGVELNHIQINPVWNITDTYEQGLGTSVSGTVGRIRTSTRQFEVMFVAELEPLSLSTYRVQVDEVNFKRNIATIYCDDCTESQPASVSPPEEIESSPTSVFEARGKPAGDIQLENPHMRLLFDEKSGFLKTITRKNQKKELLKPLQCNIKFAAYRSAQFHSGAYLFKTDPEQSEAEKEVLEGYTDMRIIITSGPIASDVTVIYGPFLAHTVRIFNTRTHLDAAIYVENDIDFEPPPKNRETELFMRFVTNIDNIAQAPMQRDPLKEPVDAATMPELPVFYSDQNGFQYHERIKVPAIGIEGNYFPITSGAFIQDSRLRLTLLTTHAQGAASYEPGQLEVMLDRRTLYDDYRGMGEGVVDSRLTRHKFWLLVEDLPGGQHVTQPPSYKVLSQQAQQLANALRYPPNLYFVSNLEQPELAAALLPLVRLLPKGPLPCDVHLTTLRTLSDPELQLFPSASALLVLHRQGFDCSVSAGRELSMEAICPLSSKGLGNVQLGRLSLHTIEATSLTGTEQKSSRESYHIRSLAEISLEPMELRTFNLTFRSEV

**Q.** For `C[C@H]1[C@@H](O)[C@@H](O)CN1Cc1ccccc1` [Compound 2a], which “LmanII inhibition in the presence of 2 mM inhibitor concentration” value (“LmanII inhibition in the presence” below) [1] is on record?
**A.** n.i.^a

**Q.** What about the “JBMan (%) inhibition in the presence of 2 mM inhibitor concentration” value (shortened to “JBMan (%) inhibition in the presence”) [2] of the same compound?
**A.** n.i.

**Q.** And the IC50 [3, 4]?
**A.** 0.00036 M

**Q.** With `C[C@H]1[C@@H](O)[C@@H](O)CN1Cc1ccc(Br)cc1` [Compound 2b] as the compound, how does the “LmanII inhibition in the presence” value [1] read?
**A.** n.i.^a

**Q.** And the “JBMan (%) inhibition in the presence” value [2]?
**A.** n.i.

**Q.** What about the IC50 [3, 4] of the same compound?
**A.** 0.00035 M

**Q.** Which “LmanII inhibition in the presence” value [1] does the source give for `C[C@H]1[C@@H](O)[C@@H](O)CN1Cc1ccc(I)cc1` [Compound 2c] here?
**A.** n.i.^a

**Q.** What about the “JBMan (%) inhibition in the presence” value [2] of the same compound?
**A.** n.i.

**Q.** And the IC50 [3, 4]?
**A.** 0.0003 M

**Q.** Which “LmanII inhibition in the presence” value [1] does the source give for `CC[C@H]1[C@@H](O)[C@@H](O)CN1Cc1ccccc1` [Compound 3a] here?
**A.** n.i.^a

**Q.** And the melting point?
**A.** 76 to 78 °C

**Q.** What about the inhibition at 2000 µM [2] of the same compound?
**A.** 3%

**Q.** What about the IC50 [3, 4] of the same compound?
**A.** 0.00075 M

**Q.** For `CC[C@H]1[C@@H](O)[C@@H](O)CN1Cc1ccc(Br)cc1` [Compound 3b], which “LmanII inhibition in the presence” value [1] is on record?
**A.** n.i.^a

**Q.** And the inhibition at 2000 µM [2]?
**A.** 14%

**Q.** What about the IC50 [3, 4] of the same compound?
**A.** 0.00095 M

**Q.** Which results are given for `CC[C@H]1[C@@H](O)[C@@H](O)CN1Cc1ccc(I)cc1` [Compound 3c]?
**A.** LmanII inhibition in the presence of 2 mM inhibitor concentration [1]: n.i.^a; inhibition at 2000 µM [2]: 39%; IC50 [3, 4]: 0.00045 M; IC50 ([3]; pH 6.0, read-out: GMIIb IC50): < 0.0005 M

**Q.** For `C[C@@H](O)[C@H]1[C@@H](O)[C@@H](O)CN1Cc1ccccc1` [Compound 4a], which “LmanII inhibition in the presence” value [1] is on record?
**A.** n.i.^a

**Q.** What about the inhibition at 2000 µM [2] of the same compound?
**A.** 2%

**Q.** And the IC50 [3, 4]?
**A.** 0.0018 M

**Q.** What about the “fold decrease in inhibition activity against GMIIb in comparison with 1a” value [3] of the same compound?
**A.** about 25 fold

**Q.** Which results are given for `C[C@@H](O)[C@H]1[C@@H](O)[C@@H](O)CN1Cc1ccc(Br)cc1` [Compound 4b]?
**A.** LmanII inhibition in the presence of 2 mM inhibitor concentration [1]: n.i.^a; inhibition at 2000 µM [2]: 4%; IC50 [3, 4]: 0.0016 M

**Q.** With `C[C@@H](O)[C@H]1[C@@H](O)[C@@H](O)CN1Cc1ccc(I)cc1` [Compound 4c] as the compound, how does the “LmanII inhibition in the presence” value [1] read?
**A.** n.i.^a

**Q.** And the inhibition at 2000 µM [2]?
**A.** 17%

**Q.** What about the IC50 [3, 4] of the same compound?
**A.** 0.0019 M

**Q.** Which “LmanII inhibition in the presence” value [1] does the source give for `C[C@H](O)[C@H]1[C@@H](O)[C@@H](O)CN1Cc1ccccc1` [Compound 5a, (2S,3R,4S)-1-Benzyl-2-((S)-1-hydroxyethyl)pyrrolidine-3,4-diol] here?
**A.** n.i.^a

**Q.** What about the inhibition at 2000 µM [2] of the same compound?
**A.** 21%

**Q.** And the IC50 [3, 4]?
**A.** 0.00195 M

**Q.** And the “fold decrease in inhibition activity against GMIIb in comparison with 1a” value [3]?
**A.** about 25 fold

**Q.** For `C[C@H](O)[C@H]1[C@@H](O)[C@@H](O)CN1Cc1ccc(Br)cc1` [Compound 5b, (2S,3R,4S)-1-(4-Bromobenzyl)-2-((S)-1-hydroxyethyl)pyrrolidine-3,4-diol], which “LmanII inhibition in the presence” value [1] is on record?
**A.** n.i.^a

**Q.** And the inhibition at 2000 µM [2]?
**A.** 40%

**Q.** And the IC50 [3, 4]?
**A.** 0.00265 M

**Q.** What does the source list for `C[C@H](O)[C@H]1[C@@H](O)[C@@H](O)CN1Cc1ccc(I)cc1` [Compound 5c, (2S,3R,4S)-1-(4-Iodobenzyl)-2-((S)-1-hydroxyethyl)pyrrolidine-3,4-diol]?
**A.** LmanII inhibition in the presence of 2 mM inhibitor concentration [1]: n.i.^a; JBMan (%) inhibition in the presence of 2 mM inhibitor concentration [2]: 38%; inhibition at 2000 µM [2]: 40%; IC50 [3, 4]: 0.00295 M

Source: paper PMC6122390, “Synthesis of 1,4-imino-L-lyxitols modified at C-5 and their evaluation as inhibitors of GH38 α-mannosidases” (Beilstein Journal of Organic Chemistry, 2018)
